This is an account of results in PMC7939445, “Exploitation of dihydroorotate dehydrogenase (DHODH) and p53 activation as therapeutic targets: A case study in polypharmacology” (The Journal of Biological Chemistry, 2021).

Like-named read-outs stand apart in the source and are kept apart here.

Assay [1] concerns the target T1, recombinant human DHODH (Homo sapiens, UniProt Q02127).
T1 construct: made in house
Kind of assay: DHODH enzymatic assay (kinetic, DCIP reduction). The format is biochemical. As for the experimental part:
Enzyme assays were performed with 6 nM recombinant human DHODH prepared as described ([36]). The reaction mixture for these kinetic assays consisted of 1 mM DHO, 100 μM 2,3-dimethoxy-5-methyl-p-benzoquinone (Sigma–Aldrich #D9150), and 100 μM 2,6-dichlorophenolindophenol sodium salt (DCIP; Sigma–Aldrich #D1878) in enzyme buffer (50 mM Tris-HCl pH 8.0, 0.1% Triton X-100, 150 mM KCl). A stock solution of 20 mM DCIP was prepared in enzyme buffer and filtered through filter paper (20−25-μm pore size) just before use. Loss in absorbance by DCIP was measured at 595 nm at room temperature in a stepped time course (8 × 2 min, 8 × 3 min, 6 × 5 min). The observed decrease in absorbance over time was linear between 8 and 26 min. Therefore, for each concentration of inhibitor tested, a value for DHODH's Vmax was estimated by linear regression within this time frame. The IC50 is defined as the concentration of inhibitor that gives Vmax([I]) = Vmax(DMSO)/2.

A further assay relates to U2OS or ARN8 cells. The assay can be described thus: Uridine uptake assay ([3H]uridine, scintillation counting). The format is cell-based, human. Particulars: 5 μM. Here is the method: 100,000 (24-h assay) or 200,000 (15-min assay) U2OS or ARN8 cells were seeded per well in 6-well plates in 2 ml of fully supplemented culture medium as described above. 24 h postseeding, medium was removed, and cells were treated with the indicated compounds for either 15 min or 24 h in 2 ml of FBS-free medium supplemented with serum replacement 3 (Sigma–Aldrich #S2640). At the end of the treatment, an extra well of each treatment was harvested in 100 μl of 1× LDS (62.5 mM Tris-HCl, pH 6.8, 10% glycerol, 1% LDS) for quantification of protein levels to determine the level of cell death after 24 h for normalization with protein concentration determined by the Bio-Rad DC protein assay (Bio-Rad #5000111). [^3H]Uridine (PerkinElmer Life Sciences #NET367001MC) was prepared in serum replacement medium to a final emission of 3.65 μCi ml^−1 and added to cells for 10 min. Following 10 min, the cells were washed with four quick changes of 1 mM unlabeled uridine prepared in ice-cold transport buffer (20 mM Tris-HCl, pH 7.4, 130 mM NaCl, 3 mM K2HPO4, 1 mM MgCl2, 5 mM glucose, 2 mM CaCl2). The samples were then harvested in 100 μl of 10% SDS. 900 μl of Optiphase Supermix (PerkinElmer Life Sciences #1200-439) was added to each sample, and the cpm were measured using a 1450 MicroBeta JET for liquid scintillation (PerkinElmer Life Sciences/Wallac).

Assay [2] relates to ARN8 cells. The assay can be described thus: SRB assay in ARN8 cells with nucleotide supplementation. Format: cell-based, human. To be noted: 72 h, 100 μM uridine, 1 mM DHO or 1 mM OA. Here is the method:
Cells were seeded in a 96-well plate at a density of 500 cells/well (ARN8) in a volume of 100 μl of fully supplemented growth medium and incubated as described above for 24 h. SKNSH p53 WT pCMV neo cells were seeded at 7500 cells/well in 100 μl of fully supplemented growth medium and incubated as described above for 24 h. SKNSH ddp53 cells were seeded at a density of 6000 cells/well in 100 μl of fully supplemented growth medium and incubated as described above for 24 h. Cells were checked for adherence and treated with tenovins in DMSO supplemented with 100 μM uridine, 1 mM DHO, or 1 mM OA. The final percentage of DMSO per well was <0.2%. Cells were incubated for 72 h with compounds. Following incubation, medium was removed from the cells and replaced by 150 μl of 1× sterile PBS and 50 μl of 40% (w/v) TCA (Sigma–Aldrich #T9159) in distilled H2O and incubated at 4 °C for 1 h to fix the cells. The plate was then washed with three changes of water with all liquid allowed to drain from the plate. 50 μl of 0.4% (w/v) sulforhodamine B (Sigma–Aldrich #230162) with 1% (v/v) acetic acid (Sigma–Aldrich #320099) in H2O was added to each well and incubated for 30 min. Excess dye was washed out with three changes of 1% (v/v) acetic acid in H2O. The remaining dye was solubilized in 100 μl of 10 mM unbuffered Tris-base (Sigma–Aldrich #93362) per well, and absorbance was read at 490 nm on a spectrophotometer.
For orientation: In SRB staining, fixed cells bind dye roughly in proportion to their protein.

Assay [3] relates to ARN8 cells. Kind of assay: Propidium iodide flow cytometry (cell cycle). The format is cell-based, human. To be noted: 48 h; for Effect on cell cycle distribution / cell death: 10 μM tenovins 1 and 33 or 200 nM brequinar; for Effect of uridine or OA on the compound's cell cycle effect: 10 μM, 100 μM uridine or 1 mM OA, not with DHO. As for the experimental part:
ARN8 cells were seeded at 30,000 per well, respectively, in 6-well plates and incubated for 24 h. All compounds were diluted to 10× stocks in fully supplemented growth medium. Cells were incubated with the compounds for 48 h. Cell culture medium was removed and placed into Falcon tubes. Wells were washed twice with 1× PBS with the washes saved in the Falcon tubes to harvest floating dead cells. Cells remaining in the wells were trypsinized with 200 μl of 1× trypsin/EDTA (Sigma–Aldrich #T4174). Following detachment, fresh growth medium was added to each well, and the contents were removed and placed in the relevant tubes. Any remaining cells in the plate were then gathered by washing twice with 2 ml of 1× PBS with the washes saved and added to the relevant tubes. The tubes were centrifuged at 500 × g for 5 min. Cell pellets were washed twice with 1× PBS. The pellets were resuspended in 1 ml of 1× PBS and added dropwise to 3 ml of 99.9% ethanol while vortex mixing at high speed. Cells were then fixed at –20 °C for 24 h. Following fixation, cells were pelleted at 1390 × g for 5 min. The cells were washed three times with 2 ml of 1× PBS containing 3% FBS with centrifugation at 1390 × g between washes. Cells were resuspended in 0.5 ml of PBS containing 10 μg of propidium iodide (Invitrogen #P3566) and 50 μg of RNase A (Sigma–Aldrich #R4642) and incubated on ice in the dark for 10 min. Flow cytometry was performed using a BD Biosciences FACScan or FACSCalibur with 10,000 events counted within the gating region.
For orientation: A flow cytometer gives signals particle by particle.

Assay [4] has as its system p53 transcriptional activity in ARN8 cells. The assay can be described thus: p53 transcriptional activation (CPRG) cell reporter assay. The format is cell-based, human. To be noted: 18 h, 100 μM uridine, 1 mM DHO or 1 mM OA. As for the experimental part: ARN8 cells were seeded in a 96-well plate at a density of 20,000 cells/well in a volume of 100 μl of fully supplemented growth medium. […] Subsequently, 50 μl of 1× reporter lysis buffer (Promega #E4030) was added to each well, and the plates were stored at –20 °C for at least 2 h.
(A reporter such as luciferase makes a cellular process visible.)

The test system of assay [5] is p53, hdm2 and p21 in ARN8 cells. The assay can be described thus: Western blotting of p53 and p53 targets in ARN8 cells. Format: cell-based, human. Particulars: 5 μM; for Treatment time at which p53 protein levels increased: blotted at 2, 4, 6 or 8 h; for Effect of OA and uridine on p53 protein and downstream signaling (hdm2, p21): 24 h, 100 μM uridine or 1 mM OA. As for the experimental part: 150,000 ARN8, HCT116 p53 WT, or HCT116 p53 KO cells were seeded on 6-well plates in 2 ml of fully supplemented medium as described above. […] A protein assay was conducted using the Bio-Rad DC protein analysis kit (Bio-Rad #5000111), and the protein levels were normalized between samples. […] The transfer was conducted using the Trans-Blot Turbo preset program for standard semidry transfer (30 min). All membranes were blocked in 5% milk (w/v) in PBS-T containing 0.1% Tween 20 (v/v) (Sigma–Aldrich P9416). All antibodies were made up in 5% milk (w/v) in PBS-T. All antibody incubations were either overnight at 4 °C or at room temperature for 1 h. […] All secondary antibodies were polyclonal rabbit anti-mouse antibodies conjugated to horseradish peroxidase (DAKO, Glostrup, Denmark #P0260) and diluted at concentrations of 1:2000 (v/v). […] All blots were normalized to their respective vehicle control and quantified using ImageLab where quantification was required (Bio-Rad version 5.2.1 build 11).

Assay [6] deals with HCT116 p53 WT and p53 KO cells. The assay can be described thus: IncuCyte cell confluence measurements. The format is cell-based, human. To be noted: HCT116 p53 WT or KO, 5 μM, confluence over 72 h. Here is the method: ARN8 or HCT116 p53 WT or KO cells were seeded in a 96-well plate at a density of 4000 cells/well in a volume of 100 μl. […] The medium of the assigned wells was replaced with 100 μl of fresh medium containing a 5 μM concentration of the corresponding Tenovins or DMSO control and placed in an IncuCyte S3 system located inside a CO2 incubator.

For assay [7], the target named is T1, recombinant human DHODH. Kind of assay: Thermal shift assay using intrinsic FMN fluorescence. Particulars: 200 μM compound, 5 μM DHODH. Format: binding. As for the experimental part: 5 μM recombinant human DHODH prepared as described ([36]) was used in this assay. The assay relied upon the intrinsic fluorescence of the embedded flavin mononucleotide (FMN) within the DHODH as a proxy for unfolding of DHODH across a temperature range, much in the same manner as the thermal shift assay using SYPRO Orange ([37]). A PCR machine with a filter set with an excitation range of 475–500 nm and an emission range of 520–590 nm was used for this experiment. 5 μM DHODH was prepared with 200 μM compound with a final concentration of 0.5% DMSO in each sample in buffer consisting of 50 mM HEPES and 150 mM NaCl. The final assay volume was 10 μl. The samples were heated across a temperature range with the fluorescence emission from FMN monitored at each temperature.

Where [8] appears, read: 6 nM recombinant human DHODH, average of three independent repeats, read-out: DHODH inhibition (enzyme assay), IC50.

T1 sequence (Q02127 whole entry): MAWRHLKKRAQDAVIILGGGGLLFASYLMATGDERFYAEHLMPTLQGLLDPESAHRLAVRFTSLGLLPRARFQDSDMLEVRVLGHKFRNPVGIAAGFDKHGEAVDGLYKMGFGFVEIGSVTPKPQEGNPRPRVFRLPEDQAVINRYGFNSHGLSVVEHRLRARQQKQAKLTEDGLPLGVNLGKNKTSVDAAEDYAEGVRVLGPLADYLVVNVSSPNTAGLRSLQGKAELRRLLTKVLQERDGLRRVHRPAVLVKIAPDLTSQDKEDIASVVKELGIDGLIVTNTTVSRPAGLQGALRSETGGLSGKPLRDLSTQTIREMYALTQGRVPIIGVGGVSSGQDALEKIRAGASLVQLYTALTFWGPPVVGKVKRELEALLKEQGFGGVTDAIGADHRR

`CC(=O)Nc1ccc(NC(=S)NC(=O)c2ccc(C(C)(C)C)cc2)cc1` [Tenovin 1]: the IC50 at recombinant human DHODH [1] (setting [8]) worked out at 113 nM. Moreover, at recombinant human DHODH [1] (enzyme assay, read-out: DHODH IC50), the IC50 is ~113 nM. The “Inhibition of uridine uptake after 15 min” value (shortened to “Inhibition of uridine uptake”) in the assay with U2OS or ARN8 cells is “unable to alter uridine uptake”. Also, the “Effect of supplementation on tumor cell growth inhibition (SRB)” value with ARN8 cells [2] is on record as “reduced upon supplementation with uridine or OA”. In the assay on ARN8 cells [3], the “Effect on cell cycle distribution / cell death” value is on record as “increase in cell death” and the “Effect of uridine or OA on the compound's cell cycle effect” value was “effect on the cell cycle largely prevented”.
With `CN(C)CCCCC(=O)Nc1ccc(NC(=S)NC(=O)c2ccc(C(C)(C)C)cc2)cc1` [Tenovin 6], the half-inhibitory concentration (IC50) at recombinant human DHODH [1] (setting [8]) is 500 nM. In assay [4], the “Effect of supplementation on induction of p53 transcriptional activity” value is listed as “partially ablated”. Besides, the “Inhibition of uridine uptake” value in the assay on U2OS or ARN8 cells was “able to inhibit uridine uptake”. For the same molecule, in assay [5], the “Treatment time at which p53 protein levels increased” value is recorded as 2 h; the “Effect of OA and uridine on p53 protein and downstream signaling (hdm2, p21)” value is “ablation of p53 downstream signaling”. Moreover, the “Effect on cell growth in p53 KO versus p53 WT cells” value in assay [6] was “effects on cell growth ablated in the p53 KO cells”. For the same molecule, the “Effect of supplementation on tumor cell growth inhibition (SRB)” value in the assay on ARN8 cells [2] is recorded as “no rescue of cell viability”.
As to `CN(C)CCCCC(=O)Nc1ccc(NC(=O)NC(=O)c2ccc(C(C)(C)C)cc2)cc1` [Tenovin 33], the 50% inhibitory concentration (IC50) at recombinant human DHODH [1] (setting [8]) was > 20000 nM. Also, on recombinant human DHODH [1] (biochemical assay), the “Inhibition of DHODH enzyme activity (in words)” value is recorded as “incapable of inhibiting DHODH enzyme activity”. Also, the “Stabilization of DHODH in thermal shift assay” value at recombinant human DHODH [7] is reported as “nor was it able to stabilize DHODH in a thermal shift assay”. Moreover, in assay [4], the “Effect of supplementation on induction of p53 transcriptional activity” value is “completely ablated”. The “Inhibition of uridine uptake” value in the assay with U2OS or ARN8 cells was “able to inhibit uridine uptake”. Besides, in assay [5], the “Treatment time at which p53 protein levels increased” value was found to be 8 h; the “Effect of OA and uridine on p53 protein and downstream signaling (hdm2, p21)” value is reported as “ablation of p53 downstream signaling”. For the same molecule, the “Effect of supplementation on tumor cell growth inhibition (SRB)” value in the assay with ARN8 cells [2] was “reduced upon supplementation with uridine or OA”. In the assay on ARN8 cells [3], the “Effect on cell cycle distribution / cell death” value is “increase in the percentage of cells in S-phase” and the “Effect of uridine or OA on the compound's cell cycle effect” value was “effect on the cell cycle largely prevented”.
Take `Cc1c(-c2ccc(-c3ccccc3F)cc2)nc2ccc(F)cc2c1C(=O)O` [brequinar, reference compound]: the “Effect on cell cycle distribution / cell death” value in the assay on ARN8 cells [3] is listed as “increase in the percentage of cells in S-phase”.

In general, IC50 refers to the concentration that gives 50% inhibition.
